Data taken from patent US6951881B2, “(1-substituted-indol-3-yl) alkylidenehydrazinecarboximidamide derivatives as 5-hydroxytryptamine-6 ligands” (Wyeth, priority 2002, dated 2005).
Like-named read-outs stand apart in the source and are kept apart here.

Biological target: T1, human cloned 5-HT6 receptors (Homo sapiens, UniProt P50406)
T1 construct: expressed in transfected cells; host or cells: HeLa cells
Format: binding
Protocol: This operation is repeated.
The reaction is allowed to proceed in the dark for 120 min at room temperature, at which time, the bound ligand-receptor complex is filtered off on a 96 well unifilter with a Packard Filtermate® 196 Harvester. The bound complex caught on the filter disk is allowed to air dry and the radioactivity is measured in a Packard TopCount® equipped with six photomultiplier detectors, after the addition of 40.0 μl Microscint®-20 scintillant to each shallow well. The unifilter plate is heat-sealed and counted in a PackardTopCount® with a tritium efficiency of 31.0%.
Specific binding to the 5-HT6 receptor is defined as the total radioactivity bound less the amount bound in the presence of 10.0 μM unlabeled methiothepin. Binding in the presence of varying concentrations of test compound is expressed as a percentage of specific binding in the absence of test compound. The results are plotted as logit % bound versus log concentration of test compound. Nonlinear regression analysis of data points with a computer assisted program Prism® yields both the IC50 and the Ki values of test compounds with 95% confidence limits.
The amount of displacement by the test compound is given in percent (%) inhibition and is derived from the following equation: [formula] where B0 is the amount of CPM bound in the presence of the testing agent. NSB represents the CPM bound in the presence of a saturating concentration of a displacer and TB represents the total amount of CPM bound at zero (0) concentration of test compound.
Alternatively, a linear regression line of decline of data points is plotted, from which the IC50 value can be read off and the Ki value determined by solving the following equation: [formula] where L is the concentration of the radioactive ligand used and KD is the dissociation constant of the ligand for the receptor, both expressed in nM.

[1] = test compound dose 1000 nM, displacement of [3H]-LSD
[2] = test compound dose 100 nM, displacement of [3H]-LSD, read-out: % Inhibition
[3] = test compound dose 100 nM, displacement of [3H]-LSD

T1 sequence (P50406 whole entry): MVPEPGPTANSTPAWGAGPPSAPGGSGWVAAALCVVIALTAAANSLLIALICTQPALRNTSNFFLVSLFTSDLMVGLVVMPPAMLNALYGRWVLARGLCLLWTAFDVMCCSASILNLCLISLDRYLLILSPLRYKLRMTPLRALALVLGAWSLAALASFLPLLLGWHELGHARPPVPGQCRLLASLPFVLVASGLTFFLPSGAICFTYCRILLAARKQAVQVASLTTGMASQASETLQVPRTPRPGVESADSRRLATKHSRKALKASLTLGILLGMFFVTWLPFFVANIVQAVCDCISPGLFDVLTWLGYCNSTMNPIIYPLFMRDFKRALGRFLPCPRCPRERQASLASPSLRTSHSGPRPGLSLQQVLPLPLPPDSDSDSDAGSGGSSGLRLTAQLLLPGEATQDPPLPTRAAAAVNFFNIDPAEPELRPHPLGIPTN

SMILES | inhibition at 1 µM [1] [%] | further results
N#CCCn1c(-c2ccc(Cl)cc2)c(C=NNC(=N)N)c2ccccc21 [Example 108, 2-{[2-(4-chloro-phenyl)-1-(2-cyano-ethyl)-1H-indol-3-yl]-methylene}hydrazinecarboximidamide] | 92 | 
CN(N=Cc1c(-c2ccc(Cl)cc2)n(CCC#N)c2ccccc12)C1=NCCN1 [Example 109, N-{[2-(4-chloro-phenyl)-1-(2-cyano-ethyl)-1H-indol-3-yl]-methylene}-N′-(4,5-dihydro-1H-imidazol-2-yl)-N-methylhydrazine] |  | % Inhibition [1]: 99.1%
N=C(N)NN=Cc1c(-c2ccc(Cl)cc2)n(CCc2ccccc2)c2ccccc12 [Example 110, 2-{[2-(4-chloro-phenyl)-1-(2-phenethyl)-1H-indol-3-yl]-methylene}hydrazinecarboximidamide] |  | % Inhibition [1]: 20.9%
CN(N=Cc1c(-c2ccc(Cl)cc2)n(CCc2ccccc2)c2ccccc12)C1=NCCN1 [Example 111, N-{[2-(4-chloro-phenyl)-1-(2-phenethyl)-1H-indol-3-yl]-methylene}-N′-(4,5-dihydro-1H-imidazol-2-yl)-N-methylhydrazine] |  | % Inhibition [1]: 37.5%
C=CCCn1c(-c2ccc(Cl)cc2)c(C=NN(C)C2=NCCN2)c2ccccc21 [Example 112, N-{[1-(3-butenyl)-2-(4-chloro-phenyl)-1H-indol-3-yl]-methylene}-N′-(4,5-dihydro-1H-imidazol-2-yl)-N-methylhydrazine] |  | % Inhibition [1]: 85.1%
N=C(NCCO)NN=Cc1c(-c2ccc(Cl)cc2)[nH]c2ccccc12 [Example 113, 2-{[2-(4-chlorophenyl)-1H-indol-3-yl]methylidene}-N-(2-hydroxyethyl)-1hydrazinecarboximidamide] | 84.1 | 
CN=C(NCCO)NN=Cc1c(-c2ccc(Cl)cc2)[nH]c2ccccc12 [Example 114, 2-{[2-(4-chlorophenyl)-1H-indol-3-yl]methylidene}-N-(2-hydroxyethyl)-N′-methyl-1hydrazinecarboximidamide] | 31.6 | 
C/C(=N\NC(=N)N)c1c(-c2ccc(Cl)cc2Cl)[nH]c2ccc(Cl)cc12 [Example 127, 2-{[5-Chloro-2-(2,4-dichlorophenyl)-1H-indol-3-yl]ethylidene}hydrazinecarboximidamide] |  | inhibition at 0.1 µM: 50.6%
C/C(=N\NC(=N)N)c1c(-c2ccc(Cl)cc2Cl)n(C)c2ccc(Cl)cc12 [Example 128, 2-{[5-Chloro-2-(2,4-dichlorophenyl)-1-methyl-1H-indol-3-yl]ethylidene}hydrazinecarboximidamide] |  | inhibition at 0.1 µM: 57.3%
C/C(=N\NC(=N)N)c1c(-c2sccc2C)[nH]c2ccccc12 [Example 133, 2-{[2-(2-(3-methyl-thienyl))-1H-indol-3-yl]-ethylidene}hydrazinecarboximidamide] |  | inhibition at 0.1 µM [2]: 63.2%
CC(=NNC(=N)N)c1c(-c2ccc(-c3ccccc3)cc2)[nH]c2ccc(Cl)cc12 [Example 141, 2-[(2-biphenyl-5-chloro-1H-indol-3-yl)-ethylidene]hydrazinecarboximidamide] |  | % Inhibition [3]: 33.6%
CC(=NNC(=N)N)c1c(-c2ccc(-c3ccccc3)cc2)n(C)c2ccc(Cl)cc12 [Example 143, 2-[(2-biphenyl-5-chloro-1-methyl-1H-indol-3-yl)-ethylidene]hydrazinecarboximidamide] |  | % Inhibition [3]: 34.6%
C/C(=N\NC(=N)N)c1c(-c2sccc2C)n(C)c2ccccc12 [Example 146, 2-{[1-methyl-2-(2-(3-methyl-thienyl))-1H-indol-3-yl]-ethylidene}hydrazinecarboximidamide] |  | inhibition at 0.1 µM [2]: 46.1%

The next lines start with results.

inhibition at 1 µM [1] [%] | SMILES | further results
49.5 | N=C(NN=Cc1c(-c2ccc(Cl)cc2)[nH]c2ccccc12)NC1CCCC1 [Example 115, 2-{[2-(4-chlorophenyl)-1H-indol-3-yl]methylidene}-N-cyclopentyl-1hydrazinecarboximidamide] | 
59.5 | CN=C(NN=Cc1c(-c2ccc(Cl)cc2)[nH]c2ccccc12)NC1CCCC1 [Example 116, 2-{[2-(4-chlorophenyl)-1H-indol-3-yl]methylidene}-N-cyclopentyl-N′-methyl-1hydrazinecarboximidamide] | 
69 | N=C(NCc1ccccc1)NN=Cc1c(-c2ccc(Cl)cc2)[nH]c2ccccc12 [Example 117, 2-{[2-(4-chlorophenyl)-1H-indol-3-yl]methylidene}-N-benzyl-1hydrazinecarboximidamide] | 
56.2 | CN=C(NCc1ccccc1)NN=Cc1c(-c2ccc(Cl)cc2)[nH]c2ccccc12 [Example 118, 2-{[2-(4-chlorophenyl)-1H-indol-3-yl]methylidene}-N-benzyl-N′-methyl-1hydrazinecarboximidamide] | 
86 | CCCNC(=N)NN=Cc1c(-c2ccc(Cl)cc2)[nH]c2ccccc12 [Example 119, 2-{[2-(4-chlorophenyl)-1H-indol-3-yl]methylidene}-N-propyl-1hydrazinecarboximidamide] | 
49.9 | CCCNC(=NC)NN=Cc1c(-c2ccc(Cl)cc2)[nH]c2ccccc12 [Example 120, 2-{[2-(4-chlorophenyl)-1H-indol-3-yl]methylidene}-N′-methyl-N-propyl-1hydrazinecarboximidamide] | 
90.5 | CNC(=N)NN=Cc1c(-c2ccc(Cl)cc2)[nH]c2ccccc12 [Example 121, 2-{[2-(4-chlorophenyl)-1H-indol-3-yl]methylidene}-N-methyl-1hydrazinecarboximidamide] | 
38.4 | CN=C(NC)NN=Cc1c(-c2ccc(Cl)cc2)[nH]c2ccccc12 [Example 122, 2-{[2-(4-chlorophenyl)-1H-indol-3-yl]methylidene}-N,N′-dimethyl-1hydrazinecarboximidamide] | 
70.4 | CCCCCNC(=N)NN=Cc1c(-c2ccc(Cl)cc2)[nH]c2ccccc12 [Example 123, 2-{[2-(4-chlorophenyl)-1H-indol-3-yl]methylidene}-N-pentyl-1hydrazinecarboximidamide] | 
74 | CCCCCNC(=NC)NN=Cc1c(-c2ccc(Cl)cc2)[nH]c2ccccc12 [Example 124, 2-{[2-(4-chlorophenyl)-1H-indol-3-yl]methylidene}-N′-methyl-N-pentyl-1hydrazinecarboximidamide] | 
99.1 | N=C(N)N/N=C1\CCCc2[nH]c3ccc(Cl)cc3c21 [Example 152, 2-(6-Chloro-1,2,3,9-tetrahydro-4H-carbazol-4-ylidene)hydrazine-carboximidamide] | 
97 | Clc1ccc2[nH]c3c(c2c1)C(=NNC1=NCCN1)CCC3 [Example 153, 6-chloro-1,2,3,9-tetrahydro-4H-carbazol-4-one 4,5-dihydro-1H-imidazol-2-ylhydrazone] | 
87.1 | CN(N=C1CCCc2[nH]c3ccc(Cl)cc3c21)C1=NCCN1 [Example 154, 6-chloro-1,2,3,9-tetrahydro-4H-carbazol-4-one 4,5-dihydro-1H-imidazol-2-yl(methyl)hydrazone] | 
98.8 | N=C(N)NN=C1CCCc2[nH]c3ccc(F)cc3c21 [Example 156, 2-(6-fluoro-1,2,3,9-tetrahydro-4H-carbazol-4-ylidene)hydrazinecarboximidamide] | 
96.3 | Fc1ccc2[nH]c3c(c2c1)C(=NNC1=NCCN1)CCC3 [Example 157, 6-fluoro-1,2,3,9-tetrahydro-4H-carbazol-4-one 4,5-dihydro-1H-imidazol-2-ylhydrazone] | 
